The species entered for data set [1] is Homo sapiens. Nature of the data set: Selectivity index, ratio of IC50 for inhibition of VEGFR2 (unknown origin) to IC50 for inhibition of TNNI3K (unknown origin).
The target in data set [2] is Serine/threonine-protein kinase B-raf (Homo sapiens, UniProt P15056). Nature of the data set: Inhibition of B-Raf (unknown origin).
Data set [3] is filed under the species Homo sapiens. Nature of the data set: Selectivity index, ratio of IC50 for inhibition of p38alpha (unknown origin) to IC50 for inhibition of TNNI3K (unknown origin).
Data set [4] can be described thus: Dose normalized AUC in po dosed rat administered as cassette dose. It is filed as ADME, organism-based. The conditions noted are these: in vivo.
Data set [5] deals with Mitogen-activated protein kinase 14 (Homo sapiens, UniProt Q16539). Nature of the data set: Inhibition of p38alpha (unknown origin).
The target of data set [6] is T1, Serine/threonine-protein kinase TNNI3K (Homo sapiens, UniProt Q59H18).
T1 sequence (Q59H18 whole entry): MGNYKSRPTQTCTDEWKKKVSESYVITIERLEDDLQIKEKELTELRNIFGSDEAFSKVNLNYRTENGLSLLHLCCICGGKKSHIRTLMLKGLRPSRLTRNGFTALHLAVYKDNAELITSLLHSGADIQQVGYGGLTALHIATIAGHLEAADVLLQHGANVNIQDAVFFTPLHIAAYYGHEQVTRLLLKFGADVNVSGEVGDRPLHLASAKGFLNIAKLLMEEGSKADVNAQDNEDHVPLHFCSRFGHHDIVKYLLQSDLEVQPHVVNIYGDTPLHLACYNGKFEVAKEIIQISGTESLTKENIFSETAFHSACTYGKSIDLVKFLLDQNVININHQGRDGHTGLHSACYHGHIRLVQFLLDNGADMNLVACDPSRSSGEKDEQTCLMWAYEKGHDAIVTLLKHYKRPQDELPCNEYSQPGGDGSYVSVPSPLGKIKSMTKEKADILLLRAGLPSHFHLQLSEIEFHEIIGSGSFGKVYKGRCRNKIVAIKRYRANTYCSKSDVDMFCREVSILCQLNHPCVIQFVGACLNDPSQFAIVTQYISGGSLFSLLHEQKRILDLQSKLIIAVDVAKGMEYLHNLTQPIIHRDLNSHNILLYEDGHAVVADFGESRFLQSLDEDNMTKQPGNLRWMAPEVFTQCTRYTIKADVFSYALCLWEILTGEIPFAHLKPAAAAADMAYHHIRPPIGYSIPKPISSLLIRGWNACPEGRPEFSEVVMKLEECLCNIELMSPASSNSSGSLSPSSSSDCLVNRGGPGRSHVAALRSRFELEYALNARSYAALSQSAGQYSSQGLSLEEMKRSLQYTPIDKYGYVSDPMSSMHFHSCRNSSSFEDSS
Nature of the data set: Inhibition of TNNI3K (unknown origin).

Data set [7] in a line: Permeability of compound incubated for 2 hrs by liquid chromatography analysis. In kind it is ADME. The conditions noted are these: read-out: permeability.
For data set [8], the target named is Vascular endothelial growth factor receptor 2 (Homo sapiens, UniProt P35968). Nature of the data set: Inhibition of GST-6His tagged VEGFR2 (unknown origin) using biotin-aminohexyl-EEEEYFELVAKKKK-NH2 peptide substrate incubated for 90 mins by HTRF assay. In general terms: In TR-FRET formats the signal depends on donor and acceptor labels being close together.

For data set [9], the target named is T1, Serine/threonine-protein kinase TNNI3K. Nature of the data set: Inhibition of human myc-TNNI3K expressed in HEK-MSR2 cells assessed as reduction in TNNI3K autophosphorylation preincubated for 30 mins followed by pervanadate addition and measured after 20 mins by DELFIA. It is filed as cell-based.
Data set [10] in a line: Half life in po dosed rat administered as cassette dose. The conditions noted are these: in vivo. It is filed as ADME, organism-based.

Bounds are passed on as bounds.

Sequence of Serine/threonine-protein kinase B-raf (P15056 whole entry): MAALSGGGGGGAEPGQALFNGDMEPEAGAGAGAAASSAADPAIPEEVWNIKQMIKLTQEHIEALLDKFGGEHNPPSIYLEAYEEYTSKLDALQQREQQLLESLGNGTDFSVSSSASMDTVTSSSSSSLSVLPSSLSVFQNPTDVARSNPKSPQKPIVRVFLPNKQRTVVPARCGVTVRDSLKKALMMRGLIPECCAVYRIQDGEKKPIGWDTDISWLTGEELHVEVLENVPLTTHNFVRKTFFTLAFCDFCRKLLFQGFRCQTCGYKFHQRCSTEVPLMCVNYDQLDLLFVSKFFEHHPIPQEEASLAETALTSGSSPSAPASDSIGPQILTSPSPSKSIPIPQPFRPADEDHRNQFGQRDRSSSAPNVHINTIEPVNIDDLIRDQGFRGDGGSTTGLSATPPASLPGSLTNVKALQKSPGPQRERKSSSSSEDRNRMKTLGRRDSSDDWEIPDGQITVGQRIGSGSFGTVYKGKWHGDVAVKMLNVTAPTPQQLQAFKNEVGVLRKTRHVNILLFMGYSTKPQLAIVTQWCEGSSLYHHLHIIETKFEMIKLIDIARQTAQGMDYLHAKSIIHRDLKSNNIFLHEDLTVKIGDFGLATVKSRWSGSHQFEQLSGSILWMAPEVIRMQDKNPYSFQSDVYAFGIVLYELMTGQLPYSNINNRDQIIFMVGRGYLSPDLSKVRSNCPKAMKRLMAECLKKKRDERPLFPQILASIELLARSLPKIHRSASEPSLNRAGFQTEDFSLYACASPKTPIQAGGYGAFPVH
Sequence of Vascular endothelial growth factor receptor 2 (P35968 whole entry): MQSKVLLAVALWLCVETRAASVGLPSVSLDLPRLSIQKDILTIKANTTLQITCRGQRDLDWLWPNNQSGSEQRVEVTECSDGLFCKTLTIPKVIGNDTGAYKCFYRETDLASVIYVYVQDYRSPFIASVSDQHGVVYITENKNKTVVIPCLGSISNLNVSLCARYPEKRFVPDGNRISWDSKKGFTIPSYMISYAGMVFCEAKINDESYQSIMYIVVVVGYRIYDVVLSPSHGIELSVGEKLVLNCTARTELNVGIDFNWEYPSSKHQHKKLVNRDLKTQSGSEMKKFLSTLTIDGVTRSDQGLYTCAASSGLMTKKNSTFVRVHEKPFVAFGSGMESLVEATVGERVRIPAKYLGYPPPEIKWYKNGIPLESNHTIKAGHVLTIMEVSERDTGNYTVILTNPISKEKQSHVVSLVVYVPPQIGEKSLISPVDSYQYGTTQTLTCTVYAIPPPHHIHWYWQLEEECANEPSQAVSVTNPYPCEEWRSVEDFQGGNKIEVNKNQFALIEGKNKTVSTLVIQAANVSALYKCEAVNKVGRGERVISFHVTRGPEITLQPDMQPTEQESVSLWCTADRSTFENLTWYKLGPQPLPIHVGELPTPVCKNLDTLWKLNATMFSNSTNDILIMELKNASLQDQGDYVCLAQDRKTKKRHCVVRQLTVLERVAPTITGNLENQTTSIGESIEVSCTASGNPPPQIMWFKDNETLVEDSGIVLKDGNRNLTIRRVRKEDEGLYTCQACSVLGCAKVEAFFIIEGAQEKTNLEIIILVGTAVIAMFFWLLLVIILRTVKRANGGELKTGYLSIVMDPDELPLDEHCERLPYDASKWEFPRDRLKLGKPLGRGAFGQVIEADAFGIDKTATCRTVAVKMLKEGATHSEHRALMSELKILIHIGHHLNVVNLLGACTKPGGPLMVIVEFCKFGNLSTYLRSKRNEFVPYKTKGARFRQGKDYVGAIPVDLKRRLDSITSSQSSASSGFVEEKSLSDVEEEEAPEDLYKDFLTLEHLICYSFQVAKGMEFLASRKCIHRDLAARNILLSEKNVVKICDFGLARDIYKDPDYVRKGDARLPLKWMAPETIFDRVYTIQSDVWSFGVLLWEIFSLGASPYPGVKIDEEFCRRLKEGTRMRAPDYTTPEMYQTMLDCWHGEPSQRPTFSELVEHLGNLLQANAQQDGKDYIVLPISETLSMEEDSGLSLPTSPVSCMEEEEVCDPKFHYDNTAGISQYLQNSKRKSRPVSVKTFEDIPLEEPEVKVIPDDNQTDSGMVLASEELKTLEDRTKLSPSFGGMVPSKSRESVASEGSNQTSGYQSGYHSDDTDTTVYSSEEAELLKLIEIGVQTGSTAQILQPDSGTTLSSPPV
Sequence of Mitogen-activated protein kinase 14 (Q16539 whole entry): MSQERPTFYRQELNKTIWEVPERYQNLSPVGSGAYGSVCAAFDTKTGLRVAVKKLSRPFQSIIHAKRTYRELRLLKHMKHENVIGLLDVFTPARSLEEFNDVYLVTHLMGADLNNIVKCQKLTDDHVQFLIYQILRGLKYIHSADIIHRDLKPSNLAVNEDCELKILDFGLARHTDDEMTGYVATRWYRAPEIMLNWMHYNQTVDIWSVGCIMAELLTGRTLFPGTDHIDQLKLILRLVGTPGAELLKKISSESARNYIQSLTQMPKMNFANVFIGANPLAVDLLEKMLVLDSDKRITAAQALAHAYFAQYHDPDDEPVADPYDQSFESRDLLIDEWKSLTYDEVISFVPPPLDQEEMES

In general, IC50 refers to the point on the concentration scale where inhibition reaches its midpoint. Usually half-life stands for the time needed for the level to fall by half in the phase considered. A higher half-life goes with slow decline. As to `CNc1cc(Oc2ccc(NC(=O)Nc3cccc(C(F)(F)F)c3)cc2)ncn1`, the Ratio IC50 in the data set listed under Homo sapiens [1] worked out at 0.63; in the data set filed under Homo sapiens [3] it was 25. Besides, the IC50 in [2] was 0.5 µM; in [5], 1 µM; in data set [6], 0.04 µM; in [8], 0.025 µM; in data set [9] it was 0.02 µM. This compound also yielded an AUC/dose in data set [4] of 3.8 kg·h/L. In data set [7], the Papp at 2 h was found to be 23 ×10⁻⁶ cm/s. Besides, in data set [10], the half-life is 3.2 h.

In [4], `CCS(=O)(=O)c1ccc(S(=O)(=O)NC)cc1Nc1cc(Nc2ccc(Cl)cn2)ncn1` returned an AUC/dose of 0.56 kg·h/L. In data set [6], this compound showed an IC50 of at most 0.01 µM.

For the compound `O=C(O)Cc1cccc(Nc2cc(Oc3ccc(NC(=O)Nc4cccc(C(F)(F)F)c4)cc3)ncn2)c1`, the Ratio IC50 amounted to 0.04 in the data set listed under Homo sapiens [1] and 40 in the data set listed under Homo sapiens [3]. Besides, the IC50 is 0.63 µM in data set [2], 0.4 µM in data set [5], 0.01 µM in data set [6] and 0.0004 µM in [8].

Consider `CCc1cc(NC(=O)Nc2cccc(C(F)(F)F)c2)cc(Cl)c1Oc1cc(NC)ncn1`, for which the Ratio IC50 in the data set filed under Homo sapiens [1] was above 250; in the data set listed under Homo sapiens [3] it was above 160. Moreover, the IC50 in data set [2] is above 2 µM; in data set [5], 1.6 µM; in data set [6], at most 0.01 µM; in [8], 2.5 µM; in data set [9], 0.1 µM. The AUC/dose in data set [4] turned out to be 1.2 kg·h/L. The Papp at 2 h in [7] was 5.9 ×10⁻⁶ cm/s. The half-life in data set [10] is 3.7 h.

For the compound `CNc1cc(Oc2c(C)cc(NC(=O)Nc3cccc(C(F)(F)F)c3)cc2C)ncn1`, the Ratio IC50 in the data set filed under Homo sapiens [1] amounted to 40; in the data set listed under Homo sapiens [3], 250. The IC50 in [2] came out at 2 µM; in data set [5], 6.3 µM; in [8] it was 1 µM; in data set [9] it was 0.0079 µM. The compound also yielded an AUC/dose in [4] of 1.5 kg·h/L. Further, the Papp at 2 h in [7] was determined as 29.5 ×10⁻⁶ cm/s. Moreover, the half-life in data set [10] is 2.4 h.

As to `CNc1cc(Oc2c(F)cc(NC(=O)Nc3cccc(C(F)(F)F)c3)cc2F)ncn1`, the values for the Ratio IC50 in the data set listed under Homo sapiens [1] and in the data set listed under Homo sapiens [3] were 2.5 and 25, respectively. Further, the IC50 in data set [2] is above 2 µM; in data set [5], 0.5 µM; in data set [6], 0.02 µM; in [8] it was 0.05 µM.

In the case of `CNc1cc(Oc2ccc(NC(=O)Nc3ccccc3)cc2)ncn1`, the figures for the Ratio IC50 in the data set listed under Homo sapiens [1] and in the data set listed under Homo sapiens [3] were 1 and above 4, respectively. Besides, the IC50 in data set [2] was above 2 µM; in [5] it was above 25 µM; in data set [6], 6.3 µM; in [8] it was 6.3 µM.

Turning to `CNc1nccc(Oc2ccc(NC(=O)Nc3cccc(C(F)(F)F)c3)cc2)n1`, the figures for the Ratio IC50 in the data set listed under Homo sapiens [1] and in the data set listed under Homo sapiens [3] were 0.64 and 1, respectively. Also, the IC50 in [2] turned out to be 0.063 µM; in data set [5], 0.05 µM; in data set [6], 0.05 µM; in data set [8], 0.032 µM.

For the compound `CC(C)(O)CNc1cc(Oc2ccc(NC(=O)Nc3cccc(C(F)(F)F)c3)cc2)ncn1`, the results for the Ratio IC50 in the data set listed under Homo sapiens [1] and in the data set filed under Homo sapiens [3] were 8 and 16, respectively. Moreover, the IC50 was 1.6 µM in data set [2]; 0.63 µM in data set [5]; 0.04 µM in [6]; 0.32 µM in data set [8]; 0.05 µM in data set [9]. In addition, the AUC/dose in data set [4] stood at 2 kg·h/L. Further, the Papp at 2 h in [7] amounted to 21 ×10⁻⁶ cm/s. Besides, in data set [10], the half-life was 3.7 h.

Turning to `CNS(=O)(=O)c1ccc(N(C)C)c(Nc2ncnc3cc(OC)c(OC)cc23)c1`, half-maximal inhibition in data set [2] (IC50) required 1 µM. Further, the AUC/dose in [4] came out at 0.18 kg·h/L.

Take `CNc1cc(Oc2ccc(NC(=O)Nc3cccc(C(C)(C)C)c3)cc2)ncn1`: the Ratio IC50 was determined as 0.63 in the data set listed under Homo sapiens [1] and 25 in the data set filed under Homo sapiens [3]. Besides, the IC50 was found to be 0.4 µM in [2], 1 µM in [5], 0.04 µM in data set [6] and 0.025 µM in [8].

For the compound `CN(C)c1cc(Oc2ccc(NC(=O)Nc3cccc(C(F)(F)F)c3)cc2)ncn1`, the Ratio IC50 was determined as 1 in the data set filed under Homo sapiens [1] and 0.8 in the data set filed under Homo sapiens [3]. Also, the IC50 in [2] stood at 1 µM; in data set [5], 2 µM; in [6] it was 2.5 µM; in [8], 2.5 µM.

For the compound `CNc1cc(Oc2cc(C)c(NC(=O)Nc3cccc(C(F)(F)F)c3)cc2C)ncn1`, the Ratio IC50 in the data set listed under Homo sapiens [1] is 63; in the data set filed under Homo sapiens [3] it was 160. Further, the IC50 in data set [2] is above 2 µM; in data set [5] it was 5 µM; in data set [6], 0.032 µM; in [8] it was 2 µM.

For `CNS(=O)(=O)c1ccc(N(C)C)c(Nc2ncnc3[nH]ccc23)c1`, in data set [2], the IC50 was 0.006 µM. This compound displayed an AUC/dose in data set [4] of 0.59 kg·h/L.

As for `CNC(=O)c1cc(Oc2ccc(NC(=O)Nc3ccc(Cl)c(C(F)(F)F)c3)cc2)ccn1` [SORAFENIB], in data set [4], the AUC/dose came out at 5.8 kg·h/L. For the same compound, the Papp at 2 h in data set [7] worked out at 11 ×10⁻⁶ cm/s. In data set [10], this compound gave a half-life of 6.8 h.

Turning to `CNc1cc(Oc2ccc(NC(=O)Nc3cccc(C(F)(F)F)c3)cc2C)ncn1`, the Ratio IC50 in the data set listed under Homo sapiens [1] was above 6.3; in the data set filed under Homo sapiens [3], above 63. Moreover, the IC50 in [2] is 0.16 µM; in [5], 0.63 µM; in data set [6] it was at most 0.01 µM; in [8], 0.063 µM.

Turning to `CNc1cc(Oc2ccc(NC(=O)Nc3cccc(C(F)(F)F)c3)c(F)c2)ncn1`, the Ratio IC50 in the data set filed under Homo sapiens [1] was 0.1; in the data set listed under Homo sapiens [3] it was 6.3. The IC50 worked out at 0.063 µM in [2], 0.4 µM in data set [5], 0.063 µM in [6] and 0.0063 µM in data set [8].

Consider `CNc1cc(Oc2ccc(NC(=O)Nc3cccc(C(F)F)c3)cc2)ncn1`, for which the figures for the Ratio IC50 in the data set listed under Homo sapiens [1] and in the data set filed under Homo sapiens [3] were 1.3 and 62, respectively. The IC50 was above 2 µM in data set [2], 6.3 µM in [5], 0.1 µM in data set [6] and 0.13 µM in data set [8].

Turning to `CNc1cc(Oc2c(C)cc(NC(=O)Nc3cccc(C(F)(F)F)c3)c3ccccc23)ncn1`, the Ratio IC50 was 5 in the data set filed under Homo sapiens [1] and 4 in the data set listed under Homo sapiens [3]. Besides, the IC50 in data set [2] was above 2 µM; in data set [5], 0.13 µM; in data set [6], 0.032 µM; in data set [8], 0.16 µM.

Take `Cc1cc(Oc2ccc(NC(=O)Nc3cccc(C(F)(F)F)c3)cc2)ncn1`: the Ratio IC50 in the data set listed under Homo sapiens [1] is 0.4; in the data set listed under Homo sapiens [3] it was 6.3. Moreover, the IC50 in data set [2] was 1.26 µM; in [5], 1 µM; in [6] it was 0.16 µM; in data set [8], 0.063 µM.

For the compound `CNc1cc(Oc2ccc(NC(=O)Nc3cccc(CF)c3)cc2)ncn1`, the Ratio IC50 amounted to 1 in the data set filed under Homo sapiens [1] and 63 in the data set listed under Homo sapiens [3]. For the same compound, the IC50 in data set [2] is above 2 µM; in [5], 25 µM; in [6], 0.4 µM; in data set [8], 0.4 µM.

As for `Nc1cc(Oc2ccc(NC(=O)Nc3cccc(C(F)(F)F)c3)cc2)ncn1`, the Ratio IC50 in the data set filed under Homo sapiens [1] turned out to be 0.32; in the data set filed under Homo sapiens [3], 40. Besides, the IC50 was 1.6 µM in data set [2]; 1 µM in [5]; 0.025 µM in [6]; 0.0079 µM in [8]; 0.016 µM in [9]. In data set [4], this compound returned an AUC/dose of 0.4 kg·h/L. Moreover, the Papp at 2 h in [7] came out at 24.5 ×10⁻⁶ cm/s. Further, the half-life in data set [10] is 3.2 h.

Turning to `O=C(Nc1ccc(Oc2ccnc3[nH]ccc23)cc1)Nc1cccc(C(F)(F)F)c1`, the Ratio IC50 in the data set filed under Homo sapiens [1] was found to be 0.1; in the data set listed under Homo sapiens [3] it was 1. Moreover, the IC50 came out at 0.32 µM in data set [2], 0.032 µM in [5], 0.032 µM in data set [6] and 0.0032 µM in data set [8].

Regarding `O=C(Nc1ccc(Oc2cc(NCCO)ncn2)cc1)Nc1cccc(C(F)(F)F)c1`, the Ratio IC50 in the data set filed under Homo sapiens [1] is 2.5; in the data set listed under Homo sapiens [3], 31. Further, the IC50 stood at 1 µM in data set [2]; 1 µM in [5]; 0.032 µM in [6]; 0.079 µM in data set [8]; 0.04 µM in [9]. The AUC/dose in data set [4] is 0.3 kg·h/L. For the same compound, the Papp at 2 h in data set [7] was found to be 8.2 ×10⁻⁶ cm/s. The half-life in [10] is 4.5 h.
